Laboratory results taken from publication PMC12040169 (PLOS Biology, 2025).

Assay: in vitro
Conditions: human, hela cells, % viability

| Compound | viability at 28.5 h, 10 µM |
| --- | --- |
| CC(Oc1cccc(C#N)c1)C(=O)N1CCSCC1 (stereo not drawn) [CBK305748] | 97% |
| CC(C)Oc1ncc(C(=O)Nc2ccc(OCCC(N)=O)cc2)cc1Cl [CBK305750] | 102% |
| Cc1noc(C)c1CN1CCC(Cc2ccccc2)CC1 [CBK305752] | 96.8% |
| Cc1nc(CNCc2c(C)nn(C)c2N2CCOCC2)cs1 [CBK305753] | 83.7% |
| Cc1cccc(NCC2CCN(Cc3cc(=O)n4ccccc4n3)C2)n1 (stereo not drawn) [CBK305756] | 100% |
| COCCN(C(=O)c1ccc2ccccc2c1)C1CCS(=O)(=O)C1 (stereo not drawn) [CBK305758] | 102% |
| Cc1cc(C2CCCN2C(=O)c2ccc(C(F)(F)F)nc2)on1 (stereo not drawn) [CBK305761] | 88.6% |
| Cc1ccc(Cl)c(OC(C)C(=O)N2CCC(CC(N)=O)CC2)c1 (stereo not drawn) [CBK305762] | 93% |
| Cc1csc(C2CN(Cc3ccn(C)c(=O)c3)CCO2)n1 (stereo not drawn) [CBK305763] | 91.4% |
| Cc1cccn2c(=O)cc(CN3CCC(c4cn[nH]c4)CC3)nc12 [CBK305764] | 101% |
| Cc1nc(S(=O)(=O)N2CCC(C(=O)N3CCCCCC3)CC2)cn1C [CBK305765] | 99.3% |
| CC(C)(C)OC(=O)N1CCCC(C(=O)NC(C(N)=O)c2ccccc2)C1 (stereo not drawn) [CBK305766] | 99.8% |
| CCN(Cc1cccs1)C(=O)NC1CCCc2c1cnn2CCO (stereo not drawn) [CBK305768] | 81.6% |
| CCOc1ccc(C(=O)N2CC(C(N)=O)CCC2C)cn1 (stereo not drawn) [CBK305770] | 102% |
| CC1CCc2c(sc3ncnc(OCC(=O)N4CCNC4=O)c23)C1 (stereo not drawn) [CBK305775] | 96.1% |
| Cc1cccc(CN2CCC(NC(=O)C3(C#N)CCCC3)CC2)c1 [CBK305781] | 91.8% |
| O=C(CCc1cc(F)ccc1F)NCCCn1nc2n(c1=O)CCCC2 [CBK305782] | 97.7% |
| Cc1nc(S(=O)(=O)N2CCC(C(=O)N3CCCC3)CC2)cn1C [CBK305786] | 88.3% |
| CC1CCN(C(=O)CC(NC(N)=O)c2cccc(Br)c2)CC1 (stereo not drawn) [CBK305788] | 95.3% |
| CCn1c(C)cc(C(=O)N2CCN(c3nccc(OC)n3)CC2)c1C [CBK305791] | 95.5% |
| Cc1nn(C)c2ncc(S(=O)(=O)NC(C)c3ccc(F)cc3)cc12 (stereo not drawn) [CBK305793] | 93.4% |
| COc1ccc(Cl)cc1CN(C)C(=O)c1ccc(C)[nH]c1=O [CBK305794] | 92.9% |

| Compound | viability at 28.5 h, 10 µM |
| --- | --- |
| Cc1nc(CCNC(=O)C2CC(c3cccc(F)c3)=NO2)cs1 (stereo not drawn) [CBK305798] | 106% |
| CC(=O)Nc1ccc(NCc2nc(CC(C)C)no2)c(C(F)(F)F)c1 [CBK305799] | 110% |
| COc1ccnc(N2CCN(C(=O)c3ccc(C)n3C)CC2)n1 [CBK305803] | 84.7% |
| CC1CCCN(C(=O)CC(NC(N)=O)c2cccc(Br)c2)CC1 (stereo not drawn) [CBK305804] | 91.7% |
| O=C1CN(c2nc(-c3ccncc3)nc3ccccc23)CCN1 [CBK305805] | 91.9% |
| Cc1ccc(CCC(=O)N(CCC#N)C2CCOCC2)c(C)c1 [CBK305809] | 87.4% |
| CC1CCC(C(N)=O)CN1C(=O)c1csc(Br)c1 (stereo not drawn) [CBK305812] | 92.3% |
| Cc1nc2n(c1C)CCN(c1ccc3nnc(C(F)(F)F)n3n1)C2 [CBK305815] | 102% |
| Cc1cc(C#N)ccc1OCC(=O)NC1CCS(=O)(=O)C1 (stereo not drawn) [CBK305816] | 84.9% |
| COC(=O)c1cccn2cc(CN(CC#N)C3CC3)nc12 [CBK305821] | 105% |
| Cc1noc(C)c1CC(=O)NCc1cccc(C#N)c1 [CBK305822] | 106% |
| Cc1cc(=O)n2ncn(CC(=O)NCCOc3ccccc3)c2c1 [CBK305823] | 99.3% |
| CNS(=O)(=O)c1cccc(C(C)NC(=O)N2CCSCC2)c1 (stereo not drawn) [CBK305825] | 95.1% |
| Cc1ccc(NCC2CCN(c3cc(=O)n4oc(C)cc4n3)C2)nc1 (stereo not drawn) [CBK305827] | 90.1% |
| Cc1nc(C)n(CC2CCCN(Cc3nc4ccccc4o3)C2)n1 (stereo not drawn) [CBK305828] | 95.3% |
| CN(Cc1ccccc1N1CCOCC1)C(=O)Cc1cn2ccsc2n1 [CBK305830] | 109% |
| COCCn1c(SC(C)C(=O)N2CCNC2=O)nc2ccccc21 (stereo not drawn) [CBK305832] | 85.7% |
| COc1ccc(-c2nn(CCC#N)cc2C(=O)N2CCCCC2)cc1 [CBK305834] | 92.4% |
| COc1cccc(-c2nn(CCC#N)cc2C(N)=O)c1 [CBK305835] | 95% |
| CCN(CC(=O)NCc1ccc(F)cc1)S(=O)(=O)c1ccc(Cl)s1 [CBK305837] | 88.2% |
| Cc1nc2ncnn2c(C)c1CCC(=O)OCc1ccc(C#N)cc1 [CBK305838] | 83.7% |
| CCN(CC(=O)NCc1ccc(F)cc1)C(=O)c1ccc(C#N)cc1 [CBK305841] | 100% |

| Compound | viability at 28.5 h, 10 µM |
| --- | --- |
| CCN(CC)S(=O)(=O)c1ccc(C(=O)NCc2ccc(OC)cc2)cc1 [CBK305844] | 71.6% |
| CCCNC(=O)CN(C)CC(=O)Nc1sc2c(c1C#N)CCC(C)C2 (stereo not drawn) [CBK305845] | 82.5% |
| CC(Nc1ccc(N2CCOCC2)cc1)C(=O)Nc1cccc(C#N)c1 (stereo not drawn) [CBK305846] | 82.2% |
| CC(C)Oc1ccc(C(=O)N2CCN(c3ccccc3)CC2)cc1 [CBK305847] | 83.5% |
| Cc1nn(C)c(C)c1NC(=O)COc1ccccc1C#N [CBK305850] | 95% |
| O=C(CSc1ccc(Cl)cc1)Nc1ccc(CN2CCOCC2)cc1 [CBK305855] | 89% |
| Cc1nc2nc(N)nn2c(C)c1CCC(=O)NCc1ccccc1F [CBK305860] | 77.6% |
| CCNc1nc(-c2ccc3c(c2)CCCN3S(C)(=O)=O)cs1 [CBK305861] | 89.8% |
| CCOC(=O)c1sc2nc(C(C)N3CCOCC3)[nH]c(=O)c2c1C (stereo not drawn) [CBK305862] | 82.5% |
| CC(=O)Nc1ccc(-c2csc(N3CCN(C)CC3)n2)cc1 [CBK305865] | 93.6% |
| COc1ccccc1CN(Cc1cccs1)C(=O)Cn1cnnn1 [CBK305866] | 96.5% |
| Cc1cc(C(=O)CSc2nc3cc(Cl)cnc3[nH]2)c(C)n1C1CC1 [CBK305867] | 79.5% |
| CC(=O)Nc1cccc(C(=O)OCC(=O)N2CCCCC2C)c1 (stereo not drawn) [CBK305868] | 76.6% |
| CCOC(=O)N1CCN(S(=O)(=O)c2ccc3oc(=O)ccc3c2)CC1 [CBK305870] | 82.6% |
| O=C(c1cccs1)N1CCN(Cc2cc(=O)n3ccsc3n2)CC1 [CBK305872] | 119% |
| COc1ccccc1CN(C)C(C)C(=O)Nc1ccc(NC(C)=O)cc1 (stereo not drawn) [CBK305873] | 100% |
| CCCCn1c(SC(C)C(N)=O)nc2cc(C(=O)OC)ccc2c1=O (stereo not drawn) [CBK305877] | 84% |
| CCn1cnnc1CNC(=O)N1CCCN(Cc2cccs2)CC1 [CBK305882] | 97.6% |
| CCOC(=O)N1CCN(Cc2ccc(OCc3cccnc3)cc2)CC1 [CBK305883] | 79.1% |
| CCOC(=O)C1CSCCN1C(=O)c1cc(C)n(-c2nccs2)c1C (stereo not drawn) [CBK305884] | 75% |
| Cc1cc(C)n2ncc(C(=O)N3CCCC3c3ccc(F)cc3)c2n1 (stereo not drawn) [CBK305885] | 82.9% |
| Cn1nc(C(=O)NCC(c2ccccc2Cl)N2CCOCC2)ccc1=O (stereo not drawn) [CBK305886] | 87.3% |
